Data reported in US9174964B2, “AMPK-activating piperidinyloxy-substituted 2,3-dihydro-1H-indene-1-amine compounds and pharmaceutical compositions including the same” (Rigel Pharmaceuticals, Inc., priority 2007, dated 2015).
pEC50: −log10 of the molar value. Where a name gives a salt, the structure may show the parent alone.

target: AMPK; assay: AMPK activation, enzyme-linked immunosorbent assay; type: biochemical; details: Table 4, AMPK activation, ELISA

pEC50	SMILES
5.00 to 6.00	O=C(N[C@H]1CCN(Cc2ccncc2)C1)c1cc2cc(OC3CCN(Cc4ccc(Cl)cc4)CC3)ccc2o1 [Compound 129, (S)-5-(1-(4-chlorobenzyl)piperidin-4-yloxy)-N-(1-(pyridin-4-ylmethyl)pyrrolidin-3-yl)benzofuran-2-carboxamide]
5.00 to 6.00	O=C(N[C@H]1CCN(Cc2cccnc2)C1)c1cc2cc(OC3CCN(Cc4ccc(Cl)cc4)CC3)ccc2o1 [Compound 130, (S)-5-(1-(4-chlorobenzyl)piperidin-4-yloxy)-N-(1-(pyridin-3-ylmethyl)pyrrolidin-3-yl)benzofuran-2-carboxamide]
5.00 to 6.00	NC(=O)c1ccc(CN2CCC(Oc3ccc4oc(C(=O)NC5CCN(Cc6ccncc6)CC5)cc4c3)CC2)cc1 [Compound 131, 5-(1-(4-carbamoylbenzyl)piperidin-4-yloxy)-N-(1-(pyridin-4-ylmethyl)piperidin-4-yl)benzofuran-2-carboxamide]

same assay, conditions: Table 5, AMPK activation, ELISA

SMILES	pEC50
CC(C)(C)OC(=O)N1CCC(NC(=O)c2cc3ccc(OC4CCN(c5ccc(C(F)(F)F)cc5)CC4)cc3s2)CC1 [Compound 140, tert-butyl 4-(6-(1-(4-(trifluoromethyl)phenyl)piperidin-4-yloxy)benzo[b]thiophene-2-carboxamido)piperidine-1-carboxylate]	6.00 to 6.30
O=C(NC1CCNCC1)c1cc2ccc(OC3CCN(c4ccc(C(F)(F)F)cc4)CC3)cc2s1 [Compound 141, N-(piperidin-4-yl)-6-(1-(4-(trifluoromethyl)phenyl)piperidin-4-yloxy)benzo[b]thiophene-2-carboxamide]	6.30 to 7.00
N#Cc1cccc(CN2CCC(NC(=O)c3cc4ccc(OC5CCN(c6ccc(C(F)(F)F)cc6)CC5)cc4s3)CC2)c1 [Compound 145, N-(1-(3-cyanobenzyl)piperidin-4-yl)-6-(1-(4-(trifluoromethyl)phenyl)piperidin-4-yloxy)benzo[b]thiophene-2-carboxamide]	6.30 to 7.00
N#Cc1ccccc1CN1CCC(NC(=O)c2cc3ccc(OC4CCN(c5ccc(C(F)(F)F)cc5)CC4)cc3s2)CC1 [Compound 146, N-(1-(2-cyanobenzyl)piperidin-4-yl)-6-(1-(4-(trifluoromethyl)phenyl)piperidin-4-yloxy)benzo[b]thiophene-2-carboxamide]	6.30 to 7.00
CC(C)(C)OC(=O)N1CCC(NC(=O)c2sc3cc(OC4CCN(c5ccc(C(F)(F)F)cc5)CC4)ccc3c2Cl)CC1 [Compound 147, tert-butyl 4-(3-chloro-6-(1-(4-(trifluoromethyl)phenyl)piperidin-4-yloxy)benzo[b]thiophene-2-carboxamido)piperidine-1-carboxylate]	4.30 to 6.00
O=C(NC1CCNCC1)c1sc2cc(OC3CCN(c4ccc(C(F)(F)F)cc4)CC3)ccc2c1Cl [Compound 148, 3-chloro-N-(piperidin-4-yl)-6-(1-(4-(trifluoromethyl)phenyl)piperidin-4-yloxy)benzo[b]thiophene-2-carboxamide]	< 4.30
CC(C)(C)OC(=O)N1CCC(NC(=O)c2cc3cc(OC4CCN(c5ccc(C(F)(F)F)cc5)CC4)ccc3s2)CC1 [Compound 149, tert-butyl 4-(5-(1-(4-(trifluoromethyl)phenyl)piperidin-4-yloxy)benzo[b]thiophene-2-carboxamido)piperidine-1-carboxylate]	> 7.00
O=C(NC1CCNCC1)c1cc2cc(OC3CCN(c4ccc(C(F)(F)F)cc4)CC3)ccc2s1 [Compound 150, N-(piperidin-4-yl)-5-(1-(4-(trifluoromethyl)phenyl)piperidin-4-yloxy)benzo[b]thiophene-2-carboxamide]	4.30 to 6.00
O=C(NC1CCN(Cc2ccccn2)CC1)c1sc2cc(OC3CCN(c4ccc(C(F)(F)F)cc4)CC3)ccc2c1Cl [Compound 153, 3-chloro-N-(1-(pyridin-2-ylmethyl)piperidin-4-yl)-6-(1-(4-(trifluoromethyl)phenyl)piperidin-4-yloxy)benzo[b]thiophene-2-carboxamide]	6.30 to 7.00
N#Cc1ccc(CN2CCC(NC(=O)c3sc4cc(OC5CCN(c6ccc(C(F)(F)F)cc6)CC5)ccc4c3Cl)CC2)cc1 [Compound 154, 3-chloro-N-(1-(4-cyanobenzyl)piperidin-4-yl)-6-(1-(4-(trifluoromethyl)phenyl)piperidin-4-yloxy)benzo[b]thiophene-2-carboxamide]	> 7.00
O=C(NC1CCN(C(=O)c2ccncc2)CC1)c1sc2cc(OC3CCN(c4ccc(C(F)(F)F)cc4)CC3)ccc2c1Cl [Compound 155, 3-chloro-N-(1-isonicotinoylpiperidin-4-yl)-6-(1-(4-(trifluoromethyl)phenyl)piperidin-4-yloxy)benzo[b]thiophene-2-carboxamide]	> 7.00

Continued, values first:

pEC50	SMILES
> 7.00	O=C(NC1CCN(Cc2ccncc2)CC1)c1cc2cc(OC3CCN(c4ccc(OC(F)(F)F)cc4)CC3)ccc2s1 [Compound 137, N-(1-(pyridin-4-ylmethyl)piperidin-4-yl)-5-(1-(4-(trifluoromethoxy)phenyl)piperidin-4-yloxy)benzo[b]thiophene-2-carboxamide]
> 7.00	O=C(NC1CCN(Cc2ccncc2)CC1)c1cc2cc(OC3CCN(c4ccc(C(F)(F)F)cc4)CC3)ccc2s1 [Compound 138, N-(1-(pyridin-4-ylmethyl)piperidin-4-yl)-5-(1-(4-(trifluoromethyl)phenyl)piperidin-4-yloxy)benzo[b]thiophene-2-carboxamide]
> 7.00	O=C(NC1CCN(Cc2ccncc2)CC1)c1cc2cc(OC3CCN(Cc4ccc(Cl)cc4)CC3)ccc2s1 [Compound 139, formate salt]
> 7.00	N#Cc1ccc(CN2CCC(NC(=O)c3cc4ccc(OC5CCN(c6ccc(C(F)(F)F)cc6)CC5)cc4s3)CC2)cc1 [Compound 144, N-(1-(4-cyanobenzyl)piperidin-4-yl)-6-(1-(4-(trifluoromethyl)phenyl)piperidin-4-yloxy)benzo[b]thiophene-2-carboxamide]
> 7.00	O=C(NC1CCN(Cc2ccncc2)CC1)c1sc2cc(OC3CCN(c4ccc(C(F)(F)F)cc4)CC3)ccc2c1Cl [Compound 151, 3-chloro-N-(1-(pyridin-4-ylmethyl)piperidin-4-yl)-6-(1-(4-(trifluoromethyl)phenyl)piperidin-4-yloxy)benzo[b]thiophene-2-carboxamide]
> 7.00	O=C(NC1CCN(Cc2cccnc2)CC1)c1sc2cc(OC3CCN(c4ccc(C(F)(F)F)cc4)CC3)ccc2c1Cl [Compound 152, 3-chloro-N-(1-(pyridin-3-ylmethyl)piperidin-4-yl)-6-(1-(4-(trifluoromethyl)phenyl)piperidin-4-yloxy)benzo[b]thiophene-2-carboxamide]

same assay, conditions: Table 6, AMPK activation, ELISA

pEC50	SMILES
< 4.00	FC(F)(F)c1ccc(N2CCC(Oc3ccc4c(c3)CCC4NC3CCNCC3)CC2)cc1 (stereo not drawn) [Compound 157, N-(5-(1-(4-(trifluoromethyl)phenyl)piperidin-4-yloxy)-2,3-dihydro-1H-inden-1-yl)piperidin-4-amine]
6.00 to 6.30	FC(F)(F)c1ccc(N2CCC(Oc3ccc4c(c3)CCC4NC3CCN(Cc4ccncc4)CC3)CC2)cc1 (stereo not drawn) [Compound 158, 1-(pyridin-4-ylmethyl)-N-(5-(1-(4-(trifluoromethyl)phenyl)piperidin-4-yloxy)-2,3-dihydro-1H-inden-1-yl)piperidin-4-amine]
6.00 to 6.30	Fc1ccc(CN2CCC(NC3CCc4cc(OC5CCN(c6ccc(C(F)(F)F)cc6)CC5)ccc43)CC2)cc1 (stereo not drawn) [Compound 159, 1-(4-fluorobenzyl)-N-(5-(1-(4-(trifluoromethyl)phenyl)piperidin-4-yloxy)-2,3-dihydro-1H-inden-1-yl)piperidin-4-amine]
> 6.30	N#Cc1ccc(CN2CCC(NC3CCc4cc(OC5CCN(c6ccc(C(F)(F)F)cc6)CC5)ccc43)CC2)cc1 (stereo not drawn) [Compound 160, 4-((4-(5-(1-(4-(trifluoromethyl)phenyl)piperidin-4-yloxy)-2,3-dihydro-1H-inden-1-ylamino)piperidin-1-yl)methyl)benzonitrile]
